Laboratory results reported in patent US20090068290A1, “BIFEPRUNOX DOSES FOR TREATING SCHIZOPHRENIA” (priority 2006, published 2009).

How the values were obtained:
[1] = Pooled metabolic analysis, 6-week studies: body weight; conditions: 6-week placebo controlled trials, BX total doses, RISP 6 mg, OLZ 15 mg, HAL 10 mg; for Weight, Mean (SD) change from baseline: endpoint
Text: (§1) OBJECTIVE: To examine the metabolic effects of bifeprunox in patients with acute and stable schizophrenia.
(§2) METHODS: Metabolic data was compiled from one 6-month and four 6-week studies (i.e., a treatment period) of bifeprunox in patients with stable and acute schizophrenia, respectively. In the 6-month study, patients received bifeprunox (n=331) or placebo (PBO) (n=166). […] Metabolic evaluations included body weight, body mass index (BMI), plasma glucose and lipid profiles. Fasting glucose and lipid values were assessed in one 6-week study and in the 6-month study. Triglyceride:HDL ratio (TG:HDL) was calculated as a marker of insulin resistance. No statistical analyses were performed; only descriptive statistics are presented.

[2] = Pooled metabolic analysis, 6-week studies: lipid profile; conditions: endpoint, 6-week studies, BX total, OLZ 15 mg
Text: as §1, §2

[3] = tested on: CYP2C9, CYP3A4, CYP2D6; experiment: Metabolism and drug interactions of bifeprunox; conditions: in vivo
Text: The objective of this study is to assess the pharmacokinetics (PK) of bifeprunox. The PK of bifeprunox in healthy subjects were investigated based on a pooled analysis of PK parameters from 21 clinical pharmacology studies. The pooled analysis included PK profiles after single and multiple doses to 132 and 399 subjects, respectively, and explored the potential effects of age, gender, body weight, and race. In addition, PK in patients with schizophrenia were investigated using a population PK approach based on samples from 376 patients in phase II studies and 434 patients in phase III studies.

[4] = Pharmacokinetic interaction of lithium and bifeprunox in healthy male subjects; format: in vivo, human
Experimental: Because bifeprunox may be used in combination with the mood-stabilizing drug lithium for the treatment of patients with psychoses and mood disorders, the effect of multiple doses of bifeprunox on the pharmacokinetic (PK) profile of lithium was evaluated. Lithium has a narrow therapeutic index that can complicate therapy, and serum levels greater than 1.5 mmol/L carry a greater risk of lithium toxicity than do lower levels.
METHODS: This was a single center, double-blind, randomized, placebo-controlled, parallel-design study in 48 healthy male subjects. All subjects were to receive open-label lithium (450 mg) twice daily on days 1 through 8 and, provided serum levels were stable on days 5 through 7, again on days 9 through 20. Subjects whose serum levels were stable on days 5 through 7 were included in those randomized to receive, in addition to lithium 450 mg twice daily, either placebo or a rising dose of bifeprunox (0.025-40 mg) once daily on days 9 through 17, and placebo or bifeprunox 40 mg on days 18 through 21. Only a single morning dose of lithium 450 mg was administered on day 21. Lithium, steady-state Cmax, AUC over the dosing interval (0-t), and renal clearance (CL-R) values were compared between the bifeprunox and placebo groups using ANCOVA with baseline values of lithium measured on day 8 as covariate.

[5] = non-fasting, RISP 6 mg, HAL 10 mg
[6] = lithium 450 mg twice daily with bifeprunox up to 40 mg once daily, healthy male subjects

O=C(CCCN1CCC(O)(c2ccc(Cl)cc2)CC1)c1ccc(F)cc1 [HAL]
≧7% weight decrease, (%) ([1]; baseline BMI 18.5-25 kg/m^2): 3.6% | ≧7% weight increase, (%) ([1]; baseline BMI 18.5-25 kg/m^2): 7.1% | ≧7% weight decrease, (%) ([1]; baseline BMI All): 2.0% | ≧7% weight increase, (%) ([1]; baseline BMI All): 4.0% | Weight, Mean (SD) change from baseline ([1]; baseline BMI 18.5-25 kg/m^2): −0.0 (2.2) kg | Weight, Mean (SD) change from baseline ([1]; baseline BMI <18.5 kg/m^2): 1.4 (1.3) kg | Weight, Mean (SD) change from baseline ([1]; baseline BMI >25-30 kg/m^2): −1.1 (1.8) kg | Weight, Mean (SD) change from baseline ([1]; baseline BMI >30 kg/m^2): 0.4 (2.1) kg | Weight, Mean (SD) change from baseline ([1]; baseline BMI All): −0.1 (2.1) kg | Total cholesterol, Mean change (SD) [2, 5]: 0.1 (0.7) mg/dL | Triglycerides, Mean change (SD) [2, 5]: −2.7 (0.6) mg/dL

Cc1cc2c(s1)Nc1ccccc1N=C2N1CCN(C)CC1 [OLZ]
≧7% weight increase, (%) ([1]; baseline BMI 18.5-25 kg/m^2): 22.7% | ≧7% weight increase, (%) ([1]; baseline BMI <18.5 kg/m^2): 18.8% | ≧7% weight increase, (%) ([1]; baseline BMI >25-30 kg/m^2): 13.2% | ≧7% weight increase, (%) ([1]; baseline BMI >30 kg/m^2): 14.6% | Weight, Mean (SD) change from baseline ([1]; baseline BMI 18.5-25 kg/m^2): 2.1 (2.7) kg | Weight, Mean (SD) change from baseline ([1]; baseline BMI <18.5 kg/m^2): 1.0 (1.9) kg | Weight, Mean (SD) change from baseline ([1]; baseline BMI >25-30 kg/m^2): 2.3 (2.5) kg | Weight, Mean (SD) change from baseline ([1]; baseline BMI >30 kg/m^2): 3.3 (4.0) kg | Weight, Mean (SD) change from baseline ([1]; baseline BMI All): 2.4 (3.1) kg | Fasting HDL, Mean change (SD) ([2]; fasting): −1.4 (9.2) mg/dL | Fasting HDL, Percentage mean change ([2]; fasting): −2.9% | Fasting LDL, Mean change (SD) ([2]; fasting): −0.3 (28.6) mg/dL | Fasting LDL, Percentage mean change ([2]; fasting): −0.3% | Total cholesterol, Mean change (SD) ([2]; fasting): −4.0 (37.3) mg/dL | Total cholesterol, Percentage mean change ([2]; fasting): −2.0% | Triglycerides, Mean change (SD) ([2]; fasting): −9.2 (90.4) mg/dL | Triglycerides, Percentage mean change ([2]; fasting): −5.3% | Total cholesterol, Mean change (SD) [2, 5]: −0.7 (1.0) mg/dL | Triglycerides, Mean change (SD) [2, 5]: 24.6 (1.3) mg/dL

Cc1nc2n(c(=O)c1CCN1CCC(c3noc4cc(F)ccc34)CC1)CCCC2 [RISP]
≧7% weight increase, (%) ([1]; baseline BMI 18.5-25 kg/m^2): 7.3% | ≧7% weight increase, (%) ([1]; baseline BMI <18.5 kg/m^2): 20.0% | ≧7% weight increase, (%) ([1]; baseline BMI >25-30 kg/m^2): 13.3% | ≧7% weight decrease, (%) ([1]; baseline BMI >30 kg/m^2): 1.2% | ≧7% weight increase, (%) ([1]; baseline BMI >30 kg/m^2): 8.5% | ≧7% weight decrease, (%) ([1]; baseline BMI All): 0.4% | ≧7% weight increase, (%) ([1]; baseline BMI All): 9.8% | Weight, Mean (SD) change from baseline ([1]; baseline BMI 18.5-25 kg/m^2): 1.5 (2.2) kg | Weight, Mean (SD) change from baseline ([1]; baseline BMI <18.5 kg/m^2): 0.9 (2.3) kg | Weight, Mean (SD) change from baseline ([1]; baseline BMI >25-30 kg/m^2): 2.1 (3.2) kg | Weight, Mean (SD) change from baseline ([1]; baseline BMI >30 kg/m^2): 1.6 (4.2) kg | Weight, Mean (SD) change from baseline ([1]; baseline BMI All): 1.7 (3.3) kg | Total cholesterol, Mean change (SD) [2, 5]: −2.6 (0.8) mg/dL | Triglycerides, Mean change (SD) [2, 5]: −7.4 (1.4) mg/dL

[Li] [lithium]
PK of narrow therapeutic index compound on co-administration with bifeprunox [3]: did not affect the PK of these compounds to any relevant extent | effect of co-administration of multiple doses of bifeprunox on lithium steady-state pharmacokinetics ([4]; human, in vivo): no clinically relevant effect | lithium renal clearance CL-R, treatment ratio (bifeprunox vs placebo group, geometric least square means) [4, 6]: 0.94 | lithium steady-state AUC(0-t), treatment ratio (bifeprunox vs placebo group, geometric least square means) [4, 6]: 1.13 | lithium steady-state Cmax, treatment ratio (bifeprunox vs placebo group, geometric least square means) [4, 6]: 1.11

CC(=O)CC(c1ccccc1)c1c(O)c2ccccc2oc1=O (centres unmarked) [warfarin, reference compound]
PK of narrow therapeutic index compound on co-administration with bifeprunox [3]: did not affect the PK of these compounds to any relevant extent
